In US20170312293A1, “ANTIMICROBIAL WATER DISPERSIBLE COMPOSITION COMPRISING ZINC PYRITHIONE” (KOLON LIFE SCIENCE, INC., priority 2014, published 2017):
Where a name gives a salt, the structure may show the parent alone.

Columns and labels:
[1] = system: Escherichia coli; assay: Challenge test (antibiotic activity) against E. coli; type: cell-based; details: day on which all strains completely died; inoculum 1.0×10^6 cells/ml, 37° C., sampling days 1, 2, 3, 7; sample without zinc pyrithione, pH 5.5 to 9.0
Protocol: (§1) Respective samples were inoculated with three kinds of bacteria and two kinds of fungus and cultured for 7 days in order to measure antibiotic activity. On the first, second, third and seventh days, sampling was conducted, the sample was spread on a solid medium and antibiotic activity was checked. Strains used to measure antibiotic activity were Escherichia coli, Staphylococcus aureus, Pseudomonas aeruginosa for bacteria, and Candida albicans and Aspergillus niger for fungus. Regarding the media used respectively for the strains, TSA (tryptic soy agar) and NB (nutrient broth) were used for the three types of bacteria, and SDA (Sabouraud dextrose agar) and YM (yeast extract and malt extract) were used for Candida albicans (C. albicans), and SDA (Sabouraud dextrose agar) and MD (malt extract and dextrose) were used for Aspergillus niger (A. niger).
(§2) Antibiotic activity was evaluated based on the day on which all strains completely died, rather than lived and grew in the sample spread on the solid medium. First day death was considered to be excellent, second day death was considered to be good, third day death was considered to be medium, seventh day death was considered to be bad and no death until the seventh day was considered to be extremely bad.
(§3) A more detailed test method is as follows. […] 50 g of an aqueous dispersion supplemented with a suitable concentration of antibiotic agent was added to the container to prepare a sample. In consideration of the test method, in order to test zinc pyrithione having antibiotic activity, antibiotic activity of zinc pyrithione was preferably removed using a neutralization agent, but water was inevitably used to adjust a predetermined volume without adding zinc pyrithione due to absence of a suitable neutralization agent.
(§4) The prepared sample was inoculated with 1.0×10^6 cells/ml of E. coli, S. aureus and P. aeruginosa, and with 1.0×10^5 cells/ml of C. albicans and A. niger. Then, E. coli, S. aureus and P. aeruginosa were cultured at 37° C., while C. albicans and A. niger were cultured at 30° C. At the point of times of 1, 2, 3 and 7 days after culture, […] of the sample was obtained and spread on a solid medium and E. coli, S. aureus and P. aeruginosa were then cultured at 37° C. for 1 day for, and C. albicans and A. niger were cultured at 30° C. for 2 days. Then, whether the strains were alive or dead was checked. The respective antiseptics were used with reference to optimal pH, dosage and MIC recommended by the company of manufacture, wherein the test pH conditions were pH 5.5 to 9.0 at which zinc pyrithione was stable.

[2] = system: Staphylococcus aureus; assay: Challenge test (antibiotic activity) against S. aureus; type: cell-based; details: day on which all strains completely died; inoculum 1.0×10^6 cells/ml, 37° C., sampling days 1, 2, 3, 7; sample without zinc pyrithione, pH 5.5 to 9.0
Protocol: as §1, §2, §3, §4

[3] = system: Pseudomonas aeruginosa; assay: Challenge test (antibiotic activity) against P. aeruginosa; type: cell-based; details: day on which all strains completely died; inoculum 1.0×10^6 cells/ml, 37° C., sampling days 1, 2, 3, 7; sample without zinc pyrithione, pH 5.5 to 9.0
Protocol: as §1, §2, §3, §4

[4] = system: Candida albicans; assay: Challenge test (antibiotic activity) against C. albicans; type: cell-based; details: day on which all strains completely died; inoculum 1.0×10^5 cells/ml, 30° C., sampling days 1, 2, 3, 7; sample without zinc pyrithione, pH 5.5 to 9.0
Protocol: as §1, §2, §3, §4

[5] = system: Aspergillus niger; assay: Challenge test (antibiotic activity) against A. niger; type: cell-based; details: for Challenge test A. niger (antibiotic activity grade): day on which all strains completely died, inoculum 1.0×10^5 cells/ml, 30° C., sampling days 1, 2, 3, 7, sample without zinc pyrithione, pH 5.5 to 9.0
Protocol: as §1, §2, §3, §4

[6] = Stability of zinc pyrithione aqueous dispersion: layer separation degree via centrifugation, naked eye; type: physicochemical; details: zinc pyrithione aqueous dispersion including the antiseptic, layer separation degree (supernatant height / total height) via centrifugation
Protocol: (§5) First, a zinc pyrithione aqueous dispersion including an antiseptic which was identified to have antiseptic activity was prepared and then stored at room temperature (R.T.), at a temperature ranging from 10° C. to 20° C., or 60° C., and variation in physical properties related to stability and dispersibility were checked.
(§6) Variation in physical properties was determined depending on whether or not assay, viscosity, pH and particle size were changed, and variation in dispersibility was determined by checking layer separation degree using centrifugation and measuring dispersion stability using Turbiscan for detecting particle size variation and phase separation.
Stability was evaluated by checking a layer separation degree (production of supernatant) using centrifugation by the naked eye and was divided into grades based on the proportion of the height of the layer-separated supernatant with respect to the total height of the sample. With respect to the grades, layer separation degree (production of supernatant) of less than 5% was regarded as “high”, layer separation degree of 10% or less was regarded as “medium-high”, layer separation degree of 15% or less was regarded as “medium”, layer separation degree of 20% or less was regarded as “medium-low” and layer separation degree of higher than 20% was regarded as “low”.

[7] = Dispersion stability by Turbiscan (Turbiscan stability index); type: physicochemical; details: zinc pyrithione aqueous dispersion with the antiseptic stored at 60° C. for 2 weeks, lower = more stable, 0 = no variation
Protocol: as §5, §6
Meanwhile, from the result of determination of stability via separate testing of the zinc pyrithione aqueous dispersion composition using the Turbiscan, it could seen that the result obtained by storing at 60° C. for 2 weeks was similar to the result obtained by storing at room temperature for 3 months. Therefore, stability of the zinc pyrithione aqueous dispersion was compared based on stability index (Turbiscan stability index) associated with the result obtained by storing the test subject substances at 60° C. for 2 weeks.
In addition, the stability of conventionally used antiseptics was measured as Turbiscan-related stability and the result thus obtained is shown as a stability index in the following Table 2. […]

| Compound | Challenge test E. coli (antibiotic activity grade) [1] | Challenge test S. aureus (antibiotic activity grade) [2] | Challenge test P. aeruginosa (antibiotic activity grade) [3] | Challenge test C. albicans (antibiotic activity grade) [4] | Challenge test A. niger (antibiotic activity grade) [5] | Stability of zinc pyrithione aqueous dispersion [6] | Stability index at 60° C. × 2 weeks [7] | Antibiotic activity to A. niger ([5]; conclusion in words from the challenge test) |
| --- | --- | --- | --- | --- | --- | --- | --- | --- |
| Cn1sccc1=O [MIT, methylisothiazolinone, reference compound] | Excellent (First day death was considered to be excellent) | Excellent (First day death was considered to be excellent) | Excellent (First day death was considered to be excellent) | Excellent (First day death was considered to be excellent) | Excellent (First day death was considered to be excellent) | High (layer separation degree (production of supernatant) of less than 5% was regarded as “high”) | 3.9 |  |
| CC1(C)C(=O)N(CO)C(=O)N1CO [DMDMH, dimethylol dimethylhydantoin, reference compound] | Excellent (First day death was considered to be excellent) | Excellent (First day death was considered to be excellent) | Excellent (First day death was considered to be excellent) | Excellent (First day death was considered to be excellent) | Excellent (First day death was considered to be excellent) | High (layer separation degree (production of supernatant) of less than 5% was regarded as “high”) | 3.9 |  |
| O=S([O-])S(=O)(=O)[O-].[Na+].[Na+] [Sodium metabisulfite] | Good (second day death was considered to be good) | Good (second day death was considered to be good) | Good (second day death was considered to be good) |  | Good (second day death was considered to be good) |  |  |  |
| O=C([O-])c1ccccc1.[Na+] [Sodium benzoate] | Good (second day death was considered to be good) | Good (second day death was considered to be good) | Good (second day death was considered to be good) |  | Good (second day death was considered to be good) |  |  |  |
| OCc1ccccc1 [Benzyl alcohol] |  |  |  |  |  | Medium-low (layer separation degree of 20% or less was regarded as “medium-low”) |  |  |
| Ethylhexyl glycerin | Good (second day death was considered to be good) | Good (second day death was considered to be good) | Extremely bad (no death until the seventh day was considered to be extremely bad) | Good (second day death was considered to be good) | Medium (third day death was considered to be medium) |  |  |  |
| Cc1ncc(C[n+]2csc(CCO)c2C)c(N)n1 [Thiamine dilauryl sulfate, thiamine dilauryl sulphate] | Good (second day death was considered to be good) | Excellent (First day death was considered to be excellent) | Good (second day death was considered to be good) | Good (second day death was considered to be good) | Bad (seventh day death was considered to be bad) |  |  | vulnerable |
| O=C([O-])c1ccccc1O.[Na+] [Sodium salicylate] | Good (second day death was considered to be good) | Good (second day death was considered to be good) | Good (second day death was considered to be good) |  | Good (second day death was considered to be good) |  |  |  |
| O=S([O-])[O-].[Na+].[Na+] [Sodium sulfite] | Good (second day death was considered to be good) | Good (second day death was considered to be good) | Good (second day death was considered to be good) |  | Good (second day death was considered to be good) | High (layer separation degree (production of supernatant) of less than 5% was regarded as “high”) |  |  |
| C/C=C/C=C/C(=O)[O-].[K+] [Potassium sorbate] | Good (second day death was considered to be good) | Good (second day death was considered to be good) | Good (second day death was considered to be good) |  | Good (second day death was considered to be good) |  |  |  |
| CCCCC(O)CO (stereo not shown) [1,2-hexanediol] |  |  |  |  |  | Medium (layer separation degree of 15% or less was regarded as “medium”) |  |  |
| CCCCCCC(O)CO (stereo not shown) [1,2-octanediol] |  |  |  |  |  | Medium (layer separation degree of 15% or less was regarded as “medium”) |  |  |
